Results published in BindingDB's records for doi:10.1016/j.bmcl.2005.12.040 (Celera, 2006).

molecular target: T1, Coagulation factor VII (Homo sapiens, UniProt P08709); assay: Enzyme Inhibition Assay
T1 sequence (P08709 whole entry): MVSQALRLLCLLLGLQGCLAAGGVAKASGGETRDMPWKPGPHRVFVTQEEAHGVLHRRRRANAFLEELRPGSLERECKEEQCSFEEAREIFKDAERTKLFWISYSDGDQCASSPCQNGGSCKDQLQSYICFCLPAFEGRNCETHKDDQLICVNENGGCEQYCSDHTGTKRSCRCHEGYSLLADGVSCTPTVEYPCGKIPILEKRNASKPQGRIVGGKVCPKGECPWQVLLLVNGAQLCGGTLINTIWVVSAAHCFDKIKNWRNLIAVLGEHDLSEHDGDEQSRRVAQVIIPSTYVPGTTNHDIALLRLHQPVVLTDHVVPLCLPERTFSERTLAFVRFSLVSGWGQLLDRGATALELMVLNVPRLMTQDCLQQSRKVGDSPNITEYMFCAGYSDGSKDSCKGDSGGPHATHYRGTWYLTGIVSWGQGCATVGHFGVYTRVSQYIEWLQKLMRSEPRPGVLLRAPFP
Protocol: The enzyme reactions were initiated by the addition of substrate, and the color developed from the release of p-nitroanilide from each chromogenic substrate was monitored at 405 nm using a Thermomax kinetic plate reader (Molecular Devices). […] The apparent Ki values were then calculated according to the Cheng-Prusoff equation: Ki = IC50/1 + [S]/Km.

In order of rising Ki:
1. CC(=O)N(c1cccc(C)c1)c1cc(C(CC(=O)O)C(=O)O)cc(-c2nc3ccc(C(=N)N)cc3[nH]2)c1O (stereo not given) [2-[3-(5-carbamimidoyl-1H-1,3-benzodiazol-2-yl)-4-hydroxy-5-[N-(3-methylphenyl)acetamido]phenyl]butanedioic acid]  54 nM
2. CSc1ccccc1-c1cc(C(CC(=O)O)C(=O)O)cc(-c2nc3ccc(C(=N)N)cc3[nH]2)c1O (stereo not given) [2-[3-(5-carbamimidoyl-1H-1,3-benzodiazol-2-yl)-4-hydroxy-5-[2-(methylsulfanyl)phenyl]phenyl]butanedioic acid]  64 nM
3. N=C(N)c1ccc2nc(-c3cc(C(CC(=O)O)C(=O)O)cc(-c4ccc(Cl)s4)c3O)[nH]c2c1 (stereo not given) [2-[3-(5-carbamimidoyl-1H-1,3-benzodiazol-2-yl)-5-(5-chlorothiophen-2-yl)-4-hydroxyphenyl]butanedioic acid]  110 nM
4. N=C(N)c1ccc2nc(-c3cc(C(CC(=O)O)C(=O)O)cc(-c4ccc(CO)s4)c3O)[nH]c2c1 (stereo not given) [2-[3-(5-carbamimidoyl-1H-1,3-benzodiazol-2-yl)-4-hydroxy-5-[5-(hydroxymethyl)thiophen-2-yl]phenyl]butanedioic acid]  130 nM
5. N=C(N)c1ccc2nc(-c3cc(C(CC(=O)O)C(=O)O)cc(-c4cccc(C5CCOC(=O)O5)c4)c3O)[nH]c2c1 (stereo not given) [2-[3-(5-carbamimidoyl-1H-1,3-benzodiazol-2-yl)-4-hydroxy-5-[3-(2-oxo-1,3-dioxan-4-yl)phenyl]phenyl]butanedioic acid]  280 nM
